Consider two compounds from PMC8151276, “An Integrated Approach toward NanoBRET Tracers for Analysis of GPCR Ligand Engagement” (Molecules, 2021).

The target of one assay is T1, HTR1E (Homo sapiens, UniProt P28566).
T1 construct: purchased Promega (in-house HiBiT-GPCR construct library, NanoBRET)
The assay is described as follows: NanoBRET screen HiBiT-HTR1E in HEK293. The assay is classed as binding. The method, then:
(§1) Each tracer candidate was screened across the entire library of HiBiT-GPCR constructs using NanoBRET as the detection modality. As depicted in Figure 4A, the specificity of interactions was evaluated through decrease in BRET due to competitive displacement of a bound tracer by excess parental compound. Each tracer was analyzed for binding to each HiBiT-GPCR fusion in the absence and in the presence of competing parental compound. Briefly, HEK293 cells were transfected with HiBiT-GPCR constructs diluted into promoterless DNA to reduce expression and maximize translocation to the cell surface. Each tracer candidate was then screened at concentrations of 1 μM and 0.1 μM across cells expressing these fusions. Cells were treated for 1.5 h with tracer either alone or in the presence of 20 μM competing parental compound (i.e., control). BRET was measured upon addition of purified LgBiT and subsequent complementation with HiBiT genetically fused to a GPCR. The specificity of interactions was assessed through a decrease in BRET signal due to competitive displacement of the bound tracer. To further gauge the robustness of these interactions, the fold response over the control (i.e., BRETtracer/BRETcontrol) was calculated. We chose a 1.5-fold response, which translates to ≥7-fold signal over noise as the minimal threshold required to score an interaction as positive. […]. Below we highlight the screening results obtained for our exemplary fluorescent tracers based on Clozapine, Amitriptyline and AZD1283.
(§2) HiBiT-GPCR DNA constructs were diluted in 10 mM Tris pH 8 to a final concentration of 0.01 μg/μL, arrayed in 96-well plates and stored at −20 °C. For transfection, HEK293 cells were suspended in Opti-MEM (without phenol red) supplemented with 2% fetal bovine serum (Seradigm) and 100 units/mL penicillin–streptomycin (Gibco) at a final concentration of 220,000 cells/mL and dispensed into white 96-well plates at 90 μL/well. Subsequent transfections and screens were carried using an Agilent Bravo Automated Liquid Handling Platform. First, the 96-well HiBiT DNA arrays were diluted 25-fold in Opti-MEM (without serum or phenol red) to a final concentration of 0.0004 μg/μL and 20 μL of the diluted DNAs were transferred into new 96-well plates. Next, promoterless carrier DNA (1 μg/μL) was diluted 25-fold (0.04 μg/μL) and then dispensed into the diluted arrays at 20 μL/well. Following brief mixing, Viafect transfection reagent (Promega) diluted 16-fold into Opti-MEM was dispensed into the plates at 40 μL/well. After mixing by pipetting, plates were incubated for 10 min on the pipetting station deck. The DNA-transfection reagent complexes were then added to plates containing cells. To facilitate the screen, 10 μL of DNA-transfection reagent complexes were added in duplicates to the top 4 and bottom 4 rows, resulting in two identical 48-well arrays per plate. Plates with transfected cells were incubated for 18–20 h at 37 °C/5% CO2. A screen of each tracer across the entire library using two different concentrations requires duplicate plates of transfected cells. Depending on the number of tracers being screened, transfections can be scaled up using the same ratios. The next day, for each tracer, four 20× screening solutions in tracer dilution buffer (Promega) were prepared: two duplicates at final concentration of 20 μM and two duplicates at a final concentration of 2 μM. A competing unmodified compound was added to one of each duplicate at a final concentration of 400 μM. The four resulting solutions were diluted 4-fold in Opti-MEM without serum or phenol red to generate 5× solutions (5 µM and 0.5 µM tracer +/− 100 μM competing compound). To screen the library, a BioTek MultiFlo FX liquid dispenser was used to dispense 22.5 µL of tracer solution to the top 4 rows and 22.5 µL tracer + competing compound solution to the 4 bottom rows. Plates were briefly mixed on an orbital shaker and incubated for 1.5 h at room temperature. […]
In general terms: Bioluminescence resonance energy transfer reports proximity on the nanometre scale.

A further assay has as its target T2, P2RY4 (Homo sapiens, UniProt P51582).
T2 construct: purchased Promega (in-house HiBiT-GPCR construct library, NanoBRET)
Put plainly: NanoBRET screen HiBiT-P2RY4 in HEK293. The format is binding. As for the experimental part:
as §1, §2

The mark [1] stands for this setting: tracer at 0.1μM, listed as amitriptyline-b-2-NB590.

T1 sequence (P28566 whole entry): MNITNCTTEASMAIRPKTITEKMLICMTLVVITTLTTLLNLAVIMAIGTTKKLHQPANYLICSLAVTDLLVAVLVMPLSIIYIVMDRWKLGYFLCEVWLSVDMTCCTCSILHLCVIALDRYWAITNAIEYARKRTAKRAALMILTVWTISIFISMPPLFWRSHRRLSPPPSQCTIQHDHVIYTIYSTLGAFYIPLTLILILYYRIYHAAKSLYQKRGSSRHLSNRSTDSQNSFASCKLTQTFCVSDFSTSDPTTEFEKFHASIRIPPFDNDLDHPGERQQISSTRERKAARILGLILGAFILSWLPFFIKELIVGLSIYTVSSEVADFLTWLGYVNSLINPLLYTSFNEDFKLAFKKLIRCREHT
T2 sequence (P51582 whole entry): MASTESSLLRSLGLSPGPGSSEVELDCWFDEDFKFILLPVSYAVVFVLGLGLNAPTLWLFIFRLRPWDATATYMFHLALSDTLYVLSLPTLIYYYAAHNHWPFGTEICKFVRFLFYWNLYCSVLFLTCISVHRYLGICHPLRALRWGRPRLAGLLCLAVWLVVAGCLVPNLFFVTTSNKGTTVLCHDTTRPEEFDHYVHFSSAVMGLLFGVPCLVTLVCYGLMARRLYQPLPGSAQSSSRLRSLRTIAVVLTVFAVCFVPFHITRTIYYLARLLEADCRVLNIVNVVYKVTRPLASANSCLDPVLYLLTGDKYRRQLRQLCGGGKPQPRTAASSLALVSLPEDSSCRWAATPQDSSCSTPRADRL

Consider `Cc1nc2n(c(=O)c1CCN1CCC(c3noc4cc(F)ccc34)CC1)CCCC2OC(=O)NCCOCCOCCOCCOCCNC(=O)CCc1ccc2n1[B-](F)(F)[N+]1=C(c3ccc[nH]3)C=CC1=C2` (stereo not shown) [Risperidone-2-NB590], for which the “NanoBRET Fold Response” value on HTR1E (HTR1E, tracer 0.1μM) is on record as 0.96; on HTR1E (HTR1E, tracer 1μM), 1.07; on P2RY4 (P2RY4, tracer 0.1μM), 1.08; at P2RY4 (P2RY4, tracer 1μM) it was 0.90.
Regarding `CN(C)CCC=C1c2ccccc2CCc2ccc(C(=O)NCCNC(=O)CCOCCOCCOCCOCCNC(=O)CCc3ccc4n3[B-](F)(F)[N+]3=C(c5ccc[nH]5)C=CC3=C4)cc21` [Amitriptyline-b-2-NB590], the “NanoBRET Fold Response” value at HTR1E (setting [1]) was determined as 1.01; on HTR1E (tracer at 1μM, listed as amitriptyline-b-2-NB590), 0.95; on P2RY4 (setting [1]), 1.07.
